{"source": "patent US12090225B2", "about": "(Avalyn Pharma Inc., priority 2018, dated 2024)", "key": {"[1]": {"assay": "Disproportionation/hydration studies (pH, XRPD pattern)", "assay_type": "physicochemical", "conditions": "for pH Pre-Agitation: listed as HCl salt", "from_the_text": "No XRPD data could be compiled on the hydration or disproportionation of the salt due to the high solubility in water and acetone/water mixtures.\nThe salt only remained Pattern 1 at 0.3 aw. New patterns 6 and 7 are likely hydrated due to the high water activity conditions for production."}, "Water pH titration": {"assay": "Water pH titration", "assay_type": "physicochemical", "conditions": "2 mg/mL Nintedanib slurry HCl sample"}, "[2]": {"assay": "Pattern stability screen of potential salts (40° C./75% RH, XRPD)", "assay_type": "physicochemical"}, "[3]": {"assay": "Feasibility assessment of ready-to-use nintedanib HBr, HCl and esylate formulations", "assay_type": "physicochemical", "conditions": "NaCl at 10 mM; by itself"}, "[4]": {"assay": "Solid state and chemical stability of nintedanib HBr and HCl salts through 6 months", "assay_type": "physicochemical", "conditions": "for Weight loss: TGA/DSC", "from_the_text": "Table 24 and Table 25 summarize the total impurities (by HPLC), polymorphic form (by X-ray powder diffraction) and, where applicable, weight loss (by TGA/DSC) for both the HCl and HBr salt forms. […] There were no changes in polymorphic form for both salt forms stored at 25 C/60% RH condition."}, "[5]": {"assay": "7 day stability testing of salts (40° C./75% RH, 80° C., ambient light; HPLC purity, XRPD)", "assay_type": "physicochemical", "conditions": "listed as HCl salt", "procedure": "High Performance Liquid Chromatography-Ultraviolet Detection (HPLC-UV): Instrument: Dionex Ultimate 3000; Column: Acquity CSH C18 100 mm×2.1 mm 1.7 μm; Column Temperature: 50° C.; Autosampler Temperature: Ambient; UV wavelength: 210 nm; Injection Volume: 4 μL; Flow Rate: 0.6 mL/min; Mobile Phase A: 0.1% formic acid in water; Mobile Phase B: 0.1% formic acid in acetonitrile. The HPLC method used the gradient in Table 2.\nFT-IR appeared to be consistent with the structure. […] The material was physically stable to changes in temperature and humidity when stored for one week.\nA new, poorly crystalline pattern was produced when stored at 40° C./75% RH—Pattern 4.\nPurity of these materials remained unchanged (as shown in Table) apart from the sample stored at ambient light, where a 0.5% drop in purity was observed."}, "[6]": {"assay": "Aqueous solubility assessment of salts", "assay_type": "physicochemical"}, "[7]": {"assay": "HBr and HCl salts-filter compatibility study", "assay_type": "physicochemical", "conditions": "for visual appearance after filtration: 3% PG solution, glass vials, ambient room condition; for Visual appearance: listed as Nintedanib HCl Salt", "procedure": "HBr and HCl salts-filter compatibility study: this study was conducted to assess the compatibility of the HBr and the HCl salts with various membrane filters. […] The glass vials were stored at ambient room condition and visual appearance was periodically inspected."}, "[8]": {"assay": "Inhaled pharmacokinetics of nintedanib salt forms (intratracheal)", "assay_type": "in vivo, C57BL/6 mice", "conditions": "female, C57BL/6, mouse, lung, inhaled or intranasal, 1 mg/kg, 1 mg/kg (base equivalent) IT, mice; read-out: lung half-life"}, "[9]": {"assay": "Dynamic Vapour Sorption (DVS) hygroscopicity", "assay_type": "physicochemical", "conditions": "for DVS mass uptake at 90% RH: 25° C., uptake from input material; for Hygroscopicity: DVS", "procedure": "Dynamic Vapour Sorption (DVS). Approximately, 10 mg of sample was placed into a mesh vapour sorption balance pan and loaded into a DVS-1 or DVS Advantage dynamic vapour sorption balance by Surface Measurement Systems. The sample was subjected to a ramping profile from 40-90% relative humidity (RH) at 10% increments, maintaining the sample at each step until a stable weight had been achieved (dm/dt 0.004%, minimum step length 30 minutes, maximum step length 500 minutes) at 25° C. After completion of the sorption cycle, the sample was dried using the same procedure to 0% RH and then a second sorption cycle back to 40% RH. Two cycles were performed. The weight change during the sorption/desorption cycles were plotted, allowing for the hygroscopic nature of the sample to be determined. XRPD analysis was then carried out on any solid retained."}, "[10]": {"assay": "Citrate buffer formulation", "assay_type": "physicochemical"}, "[11]": {"assay": "0.5 mg/mL solubility assessment (filtered/unfiltered)", "assay_type": "physicochemical", "conditions": "0.5 mg/mL experiment; for pH: listed as HCl"}, "[12]": {"conditions": "Water Activity 0.3 (acetone/water)"}, "[13]": {"conditions": "Water Activity 0.6 (acetone/water)"}, "[14]": {"conditions": "Water Activity 0.9 (acetone/water)"}, "[15]": {"conditions": "40° C./75% RH, 2 months, listed as Nintedanib HCl salt"}, "[16]": {"conditions": "40° C./75% RH, 6 months, listed as Nintedanib HCl salt"}, "[17]": {"conditions": "0.5 mg/mL citrate buffer experiments, listed as HCl"}}, "note": "Where a name gives a salt, the structure may show the parent alone.", "data": [{"smiles": "COC(=O)c1ccc2c(c1)NC(=O)/C2=C(\\Nc1ccc(N(C)C(=O)CN2CCN(C)CC2)cc1)c1ccccc1", "note": "[Nintedanib HCl]", "values": [{"measurement": "pH Post-Agitation", "setting": "[1]; [12]", "value": 2.45}, {"measurement": "pH Pre-Agitation", "setting": "[1]; [12]", "value": 1.94}, {"measurement": "pH Post-Agitation", "setting": "[1]; [13]", "value": 2.33}, {"measurement": "pH Pre-Agitation", "setting": "[1]; [13]", "value": 2.32}, {"measurement": "pH Post-Agitation", "setting": "[1]; [14]", "value": 2.24}, {"measurement": "pH Pre-Agitation", "setting": "[1]; [14]", "value": 1.89}, {"measurement": "pH Post-Agitation", "setting": "[1]; Water Activity 1.0 (water)", "value": 2.33}, {"measurement": "pH Pre-Agitation", "setting": "[1]; Water Activity 1.0 (water)", "value": 2.05}, {"measurement": "pH upon cooling", "setting": "Water pH titration", "value": 4.76}, {"measurement": "concentration of the filtered sample", "setting": "Water pH titration; by HPLC", "value": 1700, "unit": "µg/mL"}, {"measurement": "XRPD pattern after 72 hrs 40° C./75% RH", "setting": "[2]; Initial pattern 1", "value": 1}, {"measurement": "XRPD pattern after 72 hrs 40° C./75% RH", "setting": "[2]; Initial pattern 2", "value": 2}, {"measurement": "XRPD pattern after 72 hrs 40° C./75% RH", "setting": "[2]; Initial pattern 3, listed as HCl", "value": 1}, {"measurement": "compatibility with NaCl", "setting": "[3]", "value": "not compatible"}, {"measurement": "Total impurities", "setting": "[4]; 25° C./60 % RH, 1 week, listed as Nintedanib HCl salt", "value": 0.41, "unit": "%"}, {"measurement": "Total impurities", "setting": "[4]; 25° C./60 % RH, 2 months, listed as Nintedanib HCl salt", "value": 0.36, "unit": "%"}, {"measurement": "Total impurities", "setting": "[4]; 25° C./60 % RH, 4 weeks, listed as Nintedanib HCl salt", "value": 0.36, "unit": "%"}, {"measurement": "Total impurities", "setting": "[4]; 25° C./60 % RH, 6 months, listed as Nintedanib HCl salt", "value": 0.46, "unit": "%"}, {"measurement": "Total impurities", "setting": "[4]; 25° C./60 % RH, Initial", "value": 0.29, "unit": "%"}, {"measurement": "Weight loss", "setting": "[4]; 25° C./60 % RH, Initial, listed as Nintedanib HCl salt", "value": 0.82, "unit": "%"}, {"measurement": "Polymorphic form", "setting": "[4]; 40° C./75% RH, 1 week", "value": "Pattern 1"}, {"measurement": "Total impurities", "setting": "[4]; 40° C./75% RH, 1 week, listed as Nintedanib HCl salt", "value": 0.39, "unit": "%"}, {"measurement": "Polymorphic form", "setting": "[4]; [15]", "value": "Pattern 1"}, {"measurement": "Total impurities", "setting": "[4]; [15]", "value": 0.37, "unit": "%"}, {"measurement": "Total impurities", "setting": "[4]; 40° C./75% RH, 4 weeks", "value": 0.34, "unit": "%"}, {"measurement": "Polymorphic form", "setting": "[4]; 40° C./75% RH, 4 weeks, listed as Nintedanib HCl salt", "value": "Pattern 1"}, {"measurement": "Polymorphic form", "setting": "[4]; [16]", "value": "Pattern 1"}, {"measurement": "Total impurities", "setting": "[4]; [16]", "value": 0.52, "unit": "%"}, {"measurement": "Polymorphic form", "setting": "[4]; 40° C./75% RH, Initial", "value": "Pattern 1"}, {"measurement": "Total impurities", "setting": "[4]; 40° C./75% RH, Initial", "value": 0.29, "unit": "%"}, {"measurement": "Weight loss", "setting": "[4]; 40° C./75% RH, Initial, listed as Nintedanib HCl salt", "value": 0.82, "unit": "%"}, {"measurement": "XRPD pattern after 7 day stability testing", "setting": "[5]; 40° C./75% RH, 80° C. and ambient light (all conditions)", "value": "remain pattern 1"}, {"measurement": "Purity (%)", "setting": "[5]; 40° C./75% RH, 7 day stability testing", "value": 99.9, "unit": "%"}, {"measurement": "Purity (%)", "setting": "[5]; 80° C., 7 day stability testing", "value": 99.9, "unit": "%"}, {"measurement": "Purity (%)", "setting": "[5]; Ambient, 7 day stability testing", "value": 99.9, "unit": "%"}, {"measurement": "Purity (%)", "setting": "[5]; Input", "value": 99.9, "unit": "%"}, {"measurement": "pH at 6 h", "setting": "[6]; salt in water, after agitation", "value": 2.26}, {"measurement": "pH at 18 h", "setting": "[6]; salt in water, after agitation", "value": 2.08}, {"measurement": "Initial pH", "setting": "[6]; salt in water, solubility assessment", "value": 2.22}, {"measurement": "solubility", "setting": "[6]; thermodynamic from solid, deionized water added to 20 mg of salt, read-out: solubility in water", "value": "~11", "unit": "mg/mL"}, {"measurement": "visual appearance after filtration", "setting": "[7]; 0.22 μm PES filter", "value": "light precipitation after 2 weeks"}, {"measurement": "visual appearance after filtration", "setting": "[7]; 0.22 μm PVDF filter", "value": "precipitated shortly after filtration"}, {"measurement": "visual appearance after filtration", "setting": "[7]; 0.22 μm nylon filter", "value": "no change in appearance through 1 month"}, {"measurement": "Visual appearance", "setting": "[7]; PTFE filter, 1 month", "value": "Precipitation"}, {"measurement": "Visual appearance", "setting": "[7]; PTFE filter, 1 week", "value": "Precipitation"}, {"measurement": "Visual appearance", "setting": "[7]; PTFE filter, 2 weeks", "value": "Precipitation"}, {"measurement": "Visual appearance", "setting": "[7]; PVFD filter, 1 month", "value": "Precipitation"}, {"measurement": "Visual appearance", "setting": "[7]; PVFD filter, 1 week", "value": "Precipitation"}, {"measurement": "Visual appearance", "setting": "[7]; PVFD filter, 2 weeks", "value": "Precipitation"}, {"measurement": "Visual appearance", "setting": "[7]; PVFD filter, Initial", "value": "Precipitation"}, {"measurement": "half-life", "setting": "[8]", "value": "~4", "unit": "min"}, {"measurement": "DVS mass uptake at 90% RH", "setting": "[9]; listed as HCl", "value": "further 2.2% uptake up"}, {"measurement": "DVS mass uptake at 90% RH", "setting": "[9]; listed as HCl salt", "value": "ca. 2.2%"}, {"measurement": "Hygroscopicity", "setting": "[9]; listed as HCl", "value": "Hygroscopic"}, {"measurement": "Hygroscopicity", "setting": "[9]; listed as HCl salt", "value": "hygroscopic"}, {"measurement": "Post-DVS XRPD pattern", "setting": "[9]; listed as HCl", "value": "Pattern unchanged"}, {"measurement": "Post-DVS XRPD pattern", "setting": "[9]; listed as HCl salt", "value": "remain unchanged"}, {"measurement": "Initial pH", "setting": "[10]; [17]", "value": 4.84}, {"measurement": "pH 1 h", "setting": "[10]; [17]", "value": 4.80}, {"measurement": "attempt to solubilize in citrate buffer", "setting": "[10]; pH 4.75 citrate buffer, ~1.7 mg/mL (Nintedanib)", "value": "unsuccessful"}, {"measurement": "concentration for filtered sample compared to unfiltered", "setting": "[11]; listed as HCl salt", "value": 99, "unit": "%"}, {"measurement": "pH", "setting": "[11]; Filtered", "value": 5.36}, {"measurement": "pH", "setting": "[11]; Unfiltered", "value": 5.28}]}]}
